This passage reports IC50 results from patent US10875851B2, “Factor XIIa inhibitors” (Merck Sharp & Dohme Corp., priority 2016, dated 2020).

The pIC50 is the IC50 on a negative log10 scale, so that one unit is a factor of ten.

pIC50: −log10 of the molar value.

The assay concerns the target human Factor XIIa (Homo sapiens (Human), UniProt P00748). As to the kind of experiment: Factor XIIa Assay. The format is biochemical. Particulars: purified human Factor XIIa 500 pM; substrate n-Acetyl-Lys-Pro-Arg-AFC 100 μM; pH 7.4; read-out: FXIIa IC50. An outline of the steps:
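Purified human FXIIa at 500 pM final with 100 μM n-Acetyl-Lys-Pro-Arg-AFC in 50 mM HEPES, 150 mM NaCl, 5 mM CaCl2, 0.1% PEG 8000, pH 7.4, at room temperature or 37° C. Initial fluorogenic hydrolysis rates measured after enzyme–inhibitor equilibration; IC50 taken where Vi=Vo/2.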

Chain of human Factor XIIa (P00748 373-615): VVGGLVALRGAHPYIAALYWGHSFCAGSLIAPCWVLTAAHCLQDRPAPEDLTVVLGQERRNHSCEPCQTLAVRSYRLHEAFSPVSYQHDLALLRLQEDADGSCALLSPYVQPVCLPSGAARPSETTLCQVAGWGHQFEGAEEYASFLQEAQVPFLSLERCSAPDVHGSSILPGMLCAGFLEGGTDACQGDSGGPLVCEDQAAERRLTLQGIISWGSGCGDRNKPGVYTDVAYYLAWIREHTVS

For `C[C@H]1N=C(N2CCN(C(=O)[C@@H](CCCCN(C)C)NC3CCC4(CC3)CCN(Cc3ccccc3)C4)[C@H](C(=O)NCc3cccs3)C2)O[C@@H]1c1ccccc1` (stereo partly drawn) [Example 143, (2S)-1[N^2-(2-benzyl-2-azaspiro[4.5]dec-8-yl)-N^6,N^6-dimethyl-D-lysyl]-4-[(4R,5R)-4-methyl-5-phenyl-4,5-dihydro-1,3-oxazol-2-yl]-N-(thiophen-2-ylmethyl)piperazine-2-carboxamide], the pIC50 is 8.03.
The same measure for `CN(C)CCCC[C@@H](NC1CCCCC1)C(=O)N1CCN(C2=NC(C)(C)CO2)C[C@H]1C(=O)NCc1cccs1` [Example 144, (2S)-1-(N^2-cyclohexyl-N^6,N^6-dimethyl-D-lysyl)-4-(4,4-dimethyl-4,5-dihydro-1,3-oxazol-2-yl)-N-(thiophen-2-ylmethyl)piperazine-2-carboxamide]: 7.53; for `CN(C)CCCC[C@H](C(=O)N1CCN(C2=NC(C)(C)C(c3ccccc3)O2)C[C@H]1C(=O)NCc1ccc2[nH]cc(Cl)c2c1)N(C)C` (stereo partly drawn) [Example 145, (2S)-N-[(3-chloro-1H-indol-5-yl)methyl]-4-(4,4-dimethyl-5-phenyl-4,5-dihydro-1,3-oxazol-2-yl)-1-(N^2,N^2,N^6,N^6-tetramethyl-D-lysyl)piperazine-2-carboxamide]: 8.17; for `CN(C)CCCC[C@H](C(=O)N1CCN(C2=NC(C)(C)C(c3ccccc3)O2)C[C@H]1C(=O)NCc1ccc2[nH]cc(Cl)c2c1)N(C)C` (stereo partly drawn) [Example 146, (2S)-N-[(3-chloro-1H-indol-5-yl)methyl]-4-(4,4-dimethyl-5-phenyl-4,5-dihydro-1,3-oxazol-2-yl)-1-(N^2,N^2,N^6,N^6-tetramethyl-D-lysyl)piperazine-2-carboxamide]: 8.24.
The result for `CN(C)CCCC[C@H](C(=O)N1CCN(C2=NC(C)(C)C(c3ccccc3)O2)C[C@H]1C(=O)NCc1cc2cnccc2s1)N(C)C` (stereo partly drawn) [Example 147, (2S)-4-(4,4-dimethyl-5-phenyl-4,5-dihydro-1,3-oxazol-2-yl)-1-(N^2,N^2,N^6,N^6-tetramethyl-D-lysyl)-N-(thieno[3,2-c]pyridin-2-ylmethyl)piperazine-2-carboxamide] reads 7.36.
With `CN(C)CCCC[C@H](C(=O)N1CCN(C2=NC(C)(C)C(c3ccccc3)O2)C[C@H]1C(=O)NCc1ccc(CN)c(F)c1)N(C)C` (stereo partly drawn) [Example 148, (2S)-N-[4-(aminomethyl)-3-fluorobenzyl]-4-(4,4-dimethyl-5-phenyl-4,5-dihydro-1,3-oxazol-2-yl)-1-(N^2,N^2,N^6,N^6-tetramethyl-D-lysyl)piperazine-2-carboxamide], the pIC50 is 7.90.
The same measure for `CN(C)CCCC[C@H](C(=O)N1CCN(C2=NC(C)(C)C(c3ccccc3)O2)C[C@H]1C(=O)NCc1ccc(CN)c(Cl)c1)N(C)C` (stereo partly drawn) [Example 149, (2S)-N-[4-(aminomethyl)-3-chlorobenzyl]-4-(4,4-dimethyl-5-phenyl-4,5-dihydro-1,3-oxazol-2-yl)-1-(N^2,N^2,N^6,N^6-tetramethyl-D-lysyl)piperazine-2-carboxamide]: 7.46; for `CN(C)CCCC[C@H](C(=O)N1CCN(C2=NC(C)(C)C(c3ccccc3)O2)C[C@H]1C(=O)NCc1cc(CN)cs1)N(C)C` (stereo partly drawn) [Example 150, (2S)-N-{[4-(aminomethyl)thiophen-2-yl]methyl}-4-(4,4-dimethyl-5-phenyl-4,5-dihydro-1,3-oxazol-2-yl)-1-(N^2,N^2,N^6,N^6-tetramethyl-D-lysyl)piperazine-2-carboxamide]: 7.31; for `C[C@H]1N=C(N2CCN(C(=O)[C@@H](CCCCNS(C)(=O)=O)NC3CCCCC3)[C@H](C(=O)NCc3cccs3)C2)O[C@H]1c1ccccc1` [Example 151, (2S)-1-[N^2-cyclohexyl-N^6-(methylsulfonyl)-D-lysyl]-4-[(4R,5S)-4-methyl-5-phenyl-4,5-dihydro-1,3-oxazol-2-yl]-N-(thiophen-2-ylmethyl)piperazine-2-carboxamide]: 7.85.
The same measure for `C[C@@H]1N=C(N2CCN(C(=O)[C@@H](CCCCNS(C)(=O)=O)NC3CCCCC3)[C@H](C(=O)NCc3cccs3)C2)O[C@@H]1c1ccccc1` [Example 152, (2S)-1-[N^2-cyclohexyl-N^6-(methylsulfonyl)-D-lysyl]-4-[(4S,5R)-4-methyl-5-phenyl-4,5-dihydro-1,3-oxazol-2-yl]-N-(thiophen-2-ylmethyl)piperazine-2-carboxamide]: 7.47; for `COc1cc(CNC(=O)[C@@H]2CN(C3=NC(C)(C)[C@H](c4ccccc4)O3)CCN2C(=O)[C@@H](CCCCN(C)C)N(C)C)ccc1CN` [Example 153, (2S)-N-[4-(aminomethyl)-3-methoxybenzyl]-4-[(5S)-4,4-dimethyl-5-phenyl-4,5-dihydro-1,3-oxazol-2-yl]-1-(N^2,N^2,N^6,N^6-tetramethyl-D-lysyl)piperazine-2-carboxamide]: 8.13; for `COc1cc(CNC(=O)[C@@H]2CN(C3=NC(C)(C)[C@H](c4ccccc4)O3)CCN2C(=O)[C@@H](CCCCN(C)C)N(C)C)ccc1C(N)=O` [Example 154, (2S)-N-(4-carbamoyl-3-methoxybenzyl)-4-[(5S)-4,4-dimethyl-5-phenyl-4,5-dihydro-1,3-oxazol-2-yl]-1-(N^2,N^2,N^6,N^6-tetramethyl-D-lysyl)piperazine-2-carboxamide]: 7.91.
The same measure for `CN(C)CCCC[C@H](C(=O)N1CCN(C2=NC(C)(C)C(c3ccccc3)O2)C[C@H]1C(=O)NCc1ccc(C(N)=O)cc1)N(C)C` (stereo partly drawn) [Example 155, (2S)-N-(4-carbamoylbenzyl)-4-(4,4-dimethyl-5-phenyl-4,5-dihydro-1,3-oxazol-2-yl)-1-(N^2,N^2,N^6,N^6-tetramethyl-D-lysyl)piperazine-2-carboxamide]: 7.27.
Take `CC1(C)N=C(N2CCN(C(=O)[C@H](N)CCCCN3CCCCC3)[C@H](C(=O)NCc3cccc(Cl)c3)C2)OC1c1ccccc1` (stereo partly drawn) [Example 156, (2S)-N-(3-chlorobenzyl)-4-(4,4-dimethyl-5-phenyl-4,5-dihydro-1,3-oxazol-2-yl)-1-(6-piperidin-1-yl-D-norleucyl)piperazine-2-carboxamide]: the pIC50 was 7.28.
Regarding `CC1(C)N=C(N2CCN(C(=O)[C@H](N)CCCCN3CCCCC3)[C@H](C(=O)NCc3cc(Cl)ccc3-n3cnnn3)C2)OC1c1ccccc1` (stereo partly drawn) [Example 157, (2S)-N-[5-chloro-2-(1H-tetrazol-1-yl)benzyl]-4-(4,4-dimethyl-5-phenyl-4,5-dihydro-1,3-oxazol-2-yl)-1-(6-piperidin-1-yl-D-norleucyl)piperazine-2-carboxamide], the pIC50 is 7.26.
The same measure for `CC1(C)N=C(N2CCN(C(=O)[C@H](N)CCCCN3CCCCC3)[C@H](C(=O)NCc3cc4cnccc4s3)C2)OC1c1ccccc1` (stereo partly drawn) [Example 158, (2S)-4-(4,4-dimethyl-5-phenyl-4,5-dihydro-1,3-oxazol-2-yl)-1-(6-piperidin-1-yl-D-norleucyl)-N-(thieno[3,2-c]pyridin-2-ylmethyl)piperazine-2-carboxamide]: 7.26.
The result for `CC(C)N[C@H](CCCCN1CCCCC1)C(=O)N1CCN(C2=NC(C)(C)C(c3ccccc3)O2)C[C@H]1C(=O)NCc1cc2cnccc2s1` (stereo partly drawn) [Example 159, (2S)-4-(4,4-dimethyl-5-phenyl-4,5-dihydro-1,3-oxazol-2-yl)-1-[N-(1-methylethyl)-6-piperidin-1-yl-D-norleucyl]-N-(thieno[3,2-c]pyridin-2-ylmethyl)piperazine-2-carboxamide] reads 7.56; that for `CC(C)N[C@H](CCCCN1CCCCC1)C(=O)N1CCN(C2=NC(C)(C)C(c3ccccc3)O2)C[C@H]1C(=O)NCc1cccc(Cl)c1` (stereo partly drawn) [Example 160, (2S)-N-(3-chlorobenzyl)-4-(4,4-dimethyl-5-phenyl-4,5-dihydro-1,3-oxazol-2-yl)-1-[N-(1-methylethyl)-6-piperidin-1-yl-D-norleucyl]piperazine-2-carboxamide], 7.86; that for `C[C@@H]1N=C(N2CCN(C(=O)[C@H](N)CCCCN3CCCCC3)[C@H](C(=O)NCc3cccc(Cl)c3)C2)O[C@H]1c1ccccc1` [Example 161, (2S)-N-(3-chlorobenzyl)-4-[(4S,5S)-4-methyl-5-phenyl-4,5-dihydro-1,3-oxazol-2-yl]-1-(6-piperidin-1-yl-D-norleucyl)piperazine-2-carboxamide], 7.66.
The same measure for `C[C@@H]1N=C(N2CCN(C(=O)[C@H](N)CCCCN3CCCCC3)[C@H](C(=O)NCc3ccc4[nH]cc(Cl)c4c3)C2)O[C@H]1c1ccccc1` [Example 162, (2S)-N-[(3-chloro-1H-indol-5-yl)methyl]-4-[(4S,5S)-4-methyl-5-phenyl-4,5-dihydro-1,3-oxazol-2-yl]-1-(6-piperidin-1-yl-D-norleucyl)piperazine-2-carboxamide]: 8.08; for `C[C@@H]1N=C(N2CCN(C(=O)[C@H](N)CCCCN3CCCCC3)[C@H](C(=O)NCc3cc4cnccc4s3)C2)O[C@H]1c1ccccc1` [Example 163, (2S)-4-[(4S,5S)-4-methyl-5-phenyl-4,5-dihydro-1,3-oxazol-2-yl]-1-(6-piperidin-1-yl-D-norleucyl)-N-(thieno[3,2-c]pyridin-2-ylmethyl)piperazine-2-carboxamide]: 7.82; for `C[C@@H]1N=C(N2CCN(C(=O)[C@H](N)CCCCN3CCCCC3)[C@H](C(=O)NCc3cccs3)C2)O[C@H]1c1ccccc1` [Example 164, (2S)-4-[(4S,5S)-4-methyl-5-phenyl-4,5-dihydro-1,3-oxazol-2-yl]-1-(6-piperidin-1-yl-D-norleucyl)-N-(thiophen-2-ylmethyl)piperazine-2-carboxamide]: 7.64.
For `COc1cc(CNC(=O)[C@@H]2CN(C3=N[C@@H](C)[C@H](c4ccccc4)O3)CCN2C(=O)[C@@H](CCCCN2CCCCC2)NC2CCC(CN)CC2)ccc1C(N)=O` (stereo partly drawn) [Example 165, (2S)-1-{N-[4-(aminomethyl)cyclohexyl]-6-piperidin-1-yl-D-norleucyl}-N-(4-carbamoyl-3-methoxybenzyl)-4-[(4S,5S)-4-methyl-5-phenyl-4,5-dihydro-1,3-oxazol-2-yl]piperazine-2-carboxamide], the pIC50 is 7.39.
